Assay results reported in publication PMC9490236, “Accurate de novo design of membrane-traversing macrocycles” (Cell, 2022).
Several values for one entry are separate records, joined by “and”; a condition that tells them apart may be missing. Equal entries are not always repeated. Where two headings read alike, the source gives them in different places.

Assay: Pharmacokinetics and oral bioavailability of D8.3.p1 and D10.1 in Balb/C female mice (PO, SQ, IV)
Type: in vivo
Description: In vivo bioavailability assays were conducted in mice and rats. D8.3.p1 and D10.1 were studied in female Balb/C mice by van Voorhis group at University of Washington. D11.2 was evaluated in Sprague Dawley (SD) rats by Robert Griffin’s group at Takeda Pharmaceuticals. D11.3 was studied in the male swiss albino mice by the contract research organization, GVK Biosciences Pvt. Ltd., Hyderabad, India. All animals used in these studies were handled in strict accordance with practices made to minimize suffering. All animal experiments conducted at the University of Washington, USA, and Takeda Pharmaceuticals, USA were approved by the Institutional Animal Care and Use Committee. Animal studies at GVK Biosciences were reviewed and approved by the Institutional Animal Ethics Committee of GVK Biosciences. We selected four designed macrocycles with diverse structures and in vitro rates of permeability for in vivo oral bioavailability studies in the rodent models. Due to the intensive resource requirements for such studies, these studies were conducted by three different research groups. D8.3.p1 and D10.1 were studied in female Balb/C mice by van Voorhis group at University of Washington. D11.2 was evaluated in Sprague Dawley (SD) rats by Robert Griffin’s group at Takeda Pharmaceuticals. D11.3 was studied in the male swiss albino mice by the contract research organization, GVK Biosciences Pvt. Ltd., Hyderabad, India. […] Blood samples were collected at multiple time points and plasma was separated from whole blood using centrifugation and stored at -80°C. […] Samples were mixed, centrifuged, and supernatant harvested for LC-MS analysis. For RP-HPLC analysis, peptides were evaluated using Agilent ZORBAX Eclipse Plus C18 1.8 μm, 2.1 mm x 50 mm and Waters Xevo TQ-S micro Triple Quadrupole/ACQUITY UPLC H-Class. […] Pharmacokinetic parameters were modeled using the Phoenix WinNonlin software package. […]

[1] = D10.1 PO 12.2 mg/kg, individual mice M1, M2, M3, 12.2 mg/kg
[2] = D10.1 PO 12.2 mg/kg, mean n=3, 12.2 mg/kg
[3] = D10.1 SQ 12.2 mg/kg, individual mice M1, M2, M3
[4] = D10.1 SQ 12.2 mg/kg, individual mice M2, M3 (M1 NA)

With `CC[C@H](C)[C@@H]1NC(=O)[C@@H](CC(C)C)NC(=O)[C@H](CC(C)C)N(C)C(=O)[C@H](Cc2ccccc2)NC(=O)CN(C)C(=O)[C@@H]2CCCN2C(=O)[C@H](C(C)C)NC(=O)[C@H](Cc2ccccc2)N(C)C(=O)[C@H]2CCCN2C(=O)[C@H](CC(C)C)NC1=O` [Design D10.1, DLEU ILE LEU DPRO *PHE VAL PRO *GLY PHE *LEU] the Plasma level (D10.1 PO 12.2 mg/kg, 15 min, individual mice M1, M2, M3, 12.2 mg/kg) was 2.26 µM, the Plasma level (D10.1 PO 12.2 mg/kg, 15 min, mean n=3, 12.2 mg/kg) was 2.58 µM and the Plasma level (D10.1 PO 12.2 mg/kg, 30 min, individual mice M1, M2, M3, 12.2 mg/kg) was 2.49 µM and 3.64 µM and 2.64 µM. For the same compound, the Plasma level (D10.1 PO 12.2 mg/kg, 30 min, mean n=3, 12.2 mg/kg) was 2.92 µM, the Plasma level (D10.1 PO 12.2 mg/kg, 60 min, individual mice M1, M2, M3, 12.2 mg/kg) was 2.14 µM and 1.64 µM and 1.57 µM and the Plasma level (D10.1 PO 12.2 mg/kg, 60 min, mean n=3, 12.2 mg/kg) was 1.78 µM. The Plasma level (D10.1 PO 12.2 mg/kg, 120 min, mean n=3, 12.2 mg/kg) was 0.72 µM, the Plasma level (D10.1 PO 12.2 mg/kg, 240 min, mean n=3, 12.2 mg/kg) was 0.16 µM and the Plasma level (D10.1 PO 12.2 mg/kg, 360 min, individual mice M1, M2, M3, 12.2 mg/kg) was 0 µM and 0.1 µM. The Plasma level (D10.1 PO 12.2 mg/kg, 360 min, mean n=3, 12.2 mg/kg) was 0.07 µM, the Plasma level (D10.1 PO 12.2 mg/kg, 1440 min, individual mice M1, M2, M3) was 0 µM and the Plasma level (D10.1 PO 12.2 mg/kg, 1440 min, mean n=3) was 0 µM. For the same compound, the Tmax (D10.1 PO 12.2 mg/kg, individual mice M1, M2, M3) was 30 min, the “AUC0-∞” value [1] was 226.62 µmol·min/L and 337.03 µmol·min/L and 276.18 µmol·min/L and the AUC(0-t) [1] was 216.96 µmol·min/L and 327.78 µmol·min/L and 266.45 µmol·min/L. The Cl/F [1] was 0.000944 L/min and 0.000635 L/min and 0.000775 L/min, the T1/2 [1] was 63.05 min and 67.95 min and the Cmax (D10.1 PO 12.2 mg/kg, individual mice M1, M2, M3, 12.2 mg/kg, read-out: Cmax) was 3640 nM and 2640 nM. The “AUC0-∞” value [2] was 279.94 µmol·min/L, the AUC(0-t) [2] was 270.4 µmol·min/L and the Plasma level (D10.1 SQ 12.2 mg/kg, 15 min, mean n=3) was 2.53 µM. The Plasma level (D10.1 SQ 12.2 mg/kg, 30 min, individual mice M1, M2, M3) was 1.81 µM and 3.69 µM and 5.15 µM, the Plasma level (D10.1 SQ 12.2 mg/kg, 30 min, mean n=3) was 3.55 µM and the Plasma level (D10.1 SQ 12.2 mg/kg, 60 min, individual mice M1, M2, M3) was 1.87 µM and 4.88 µM and 5.03 µM. It also gave a Plasma level (D10.1 SQ 12.2 mg/kg, 60 min, mean n=3) of 3.93 µM, a Plasma level (D10.1 SQ 12.2 mg/kg, 360 min, mean) of 2.29 µM and a Plasma level (D10.1 SQ 12.2 mg/kg, 1440 min, individual mice M1, M2, M3) of 0 µM. For the same compound, the Plasma level (D10.1 SQ 12.2 mg/kg, 1440 min, mean n=3) was 0.01 µM, the AUC(0-t) [3] was 730.93 µmol·min/L and 3578.6 µmol·min/L and 1329.09 µmol·min/L and the Tmax [3] was 360 min and 60 min. For the same compound, the Cmax (D10.1 SQ 12.2 mg/kg, individual mice M1, M2, M3, read-out: Cmax) was 2400 nM and 4880 nM and 5150 nM, the “AUC0-∞” value [4] was 3585.94 µmol·min/L and 2148.41 µmol·min/L and the Cl/F [4] was 5.97e-05 L/min and 9.96e-05 L/min. The T1/2 [4] was 259.81 min, the “AUC0-∞” value (D10.1 SQ 12.2 mg/kg, mean) was 2867.17 µmol·min/L and the “Half-life T1/2” value (D10.1 SQ 12.2 mg/kg, mean) was 225.38 ± 48.70 min. The AUC(0-t) (D10.1 SQ 12.2 mg/kg, mean n=3) was 1879.54 µmol·min/L, the clearance (female, Balb/C, mouse, plasma, iv, […], D10.1 IV […], individual mice M1, M2, M3, read-out: CLP) was 3.46 mL/min/kg and the half-life (female, Balb/C, mouse, plasma, iv, […], D10.1 IV […], individual mice M1, M2, M3, read-out: T1/2) was 72.4 min. It also gave a Vd (female, Balb/C, mouse, plasma, iv, […], D10.1 IV […], individual mice M1, M2, M3, read-out: VSS) of 0.32 L/kg, a Vd (female, Balb/C, mouse, plasma, iv, […], D10.1 IV […], individual mice M1, M2, M3, read-out: VZ) of 0.36 L/kg and a half-life (female, Balb/C, mouse, plasma, iv, […], D10.1 IV […], mean n=3, read-out: Half-life T1/2) of 67.4 ± 6.78 min. The clearance (female, Balb/C, mouse, plasma, iv, […], D10.1 IV […], mean n=3, read-out: Plasma clearance CLP) was 3.26 ± 0.37 mL/min/kg, the Vd (female, Balb/C, mouse, plasma, iv, […], D10.1 IV […], mean n=3, read-out: Volume of distribution @ steady state VSS) was 0.25 ± 0.08 L/kg and the Vd (female, Balb/C, mouse, plasma, iv, […], D10.1 IV […], mean n=3, read-out: Volume of distribution during elimination phase VZ) was 0.32 ± 0.07 L/kg. It also gave a level at time molar at 0.25 h (female, Balb/C, mouse, plasma, po, 12.2 mg/kg, D10.1 PO 12.2 mg/kg, 15 min, individual mice M1, M2, M3, read-out: Plasma level) of 2220 nM, a level at time molar at 2 h (female, Balb/C, mouse, plasma, po, 12.2 mg/kg, D10.1 PO 12.2 mg/kg, 120 min, individual mice M1, M2, M3, read-out: Plasma level) of 540 nM and a level at time molar at 4 h (female, Balb/C, mouse, plasma, po, 12.2 mg/kg, D10.1 PO 12.2 mg/kg, 240 min, individual mice M1, M2, M3) of 130 nM. For the same compound, the level at time molar at 6 h (female, Balb/C, mouse, plasma, po, 12.2 mg/kg, D10.1 PO 12.2 mg/kg, 360 min, individual mice M1, M2, M3, read-out: Plasma level) was 100 nM, the Cmax (female, Balb/C, mouse, plasma, po, 12.2 mg/kg, D10.1 PO 12.2 mg/kg, individual mice M1, M2, M3, read-out: Cmax) was 2490 nM and the half-life (female, Balb/C, mouse, plasma, po, 12.2 mg/kg, D10.1 PO 12.2 mg/kg, individual mice M1, M2, M3, read-out: T1/2) was 49.9 min. The Tmax (female, Balb/C, mouse, plasma, po, 12.2 mg/kg, D10.1 PO 12.2 mg/kg, individual mice M1, M2, M3, read-out: Tmax (converted)) was 30 min, the half-life (female, Balb/C, mouse, plasma, po, 12.2 mg/kg, D10.1 PO 12.2 mg/kg, mean n=3, read-out: Half-life T1/2) was 60.3 ± 9.35 min and the Cmax (female, Balb/C, mouse, plasma, po, 12.2 mg/kg, D10.1 PO 12.2 mg/kg, mean n=3, read-out: Max concentration Cmax) was 2920 ± 630 nM. It also gave a Tmax (female, Balb/C, mouse, plasma, po, 12.2 mg/kg, D10.1 PO 12.2 mg/kg, mean n=3, read-out: Time of max concentration Tmax (converted)) of 30 min, a bioavailability (female, Balb/C, mouse, plasma, po, 12.2 mg/kg, read-out: Oral bioavailability F) of 7.48 ± 1.79% and a level at time molar at 6 h (female, Balb/C, mouse, plasma, sc, 12.2 mg/kg, D10.1 SQ 12.2 mg/kg, 360 min, individual mice M1, M3 (M2 ND), read-out: Plasma level) of 2400 nM. It also gave a level at time molar at 24 h (female, Balb/C, mouse, plasma, sc, 12.2 mg/kg, D10.1 SQ 12.2 mg/kg, 1440 min, individual mice M1, M2, M3, read-out: Plasma level) of 30 nM, an AUC(0-inf) (female, Balb/C, mouse, plasma, sc, D10.1 SQ 12.2 mg/kg, mean) of 47.8 µM·h and an AUC(0-t) (female, Balb/C, mouse, plasma, sc, D10.1 SQ 12.2 mg/kg, mean n=3, read-out: AUC0-t (converted)) of 1880 µmol·min/L. The half-life (female, Balb/C, mouse, plasma, subcutaneous, 12.2 mg/kg, D10.1 SQ 12.2 mg/kg, individual mice M2, M3 (M1 NA), read-out: T1/2) was 191 min, the AUC(0-inf) (female, Balb/C, mouse, plasma, D10.1 PO 12.2 mg/kg, mean n=3) was 4.67 µM·h and the AUC(0-t) (female, Balb/C, mouse, plasma, D10.1 PO 12.2 mg/kg, mean n=3, read-out: AUC0-t (converted)) was 270 µmol·min/L. For the same compound, the CL/F (female, Balb/C, mouse, plasma, D10.1 PO 12.2 mg/kg, mean n=3, read-out: Apparent clearance Cl/F) was 0.785 mL/min and the half-life (mouse, in vivo, sc, 12.2 mg/kg, D10.1 after SQ administration, read-out: plasma half-life T1/2 (converted)) was 225 min.
